Several values for one entry are separate records, joined by “and”; a condition that tells them apart may be missing. Equal entries are not always repeated. Where two headings read alike, the source gives them in different places. Marks after values point to notes of the source that are not given here.
Tests used:
VE-cadherin = assay: Western blot of VE-cadherin expression in hCMEC/D3 cells; assay type: cell-based, Homo sapiens; conditions: hCMEC/D3 cells, 200 pg/ml GDNF; 3 μM SPP-86, 5 μM PP2, 3 μM LY294002, 2 μM U0126, 5 μM SP600125, 2 μM SB203580; anti-GDNF antibody 0.25, 0.5, 1.0 μg/ml
Protocol: (§1) Whole-cell and tissue lysates, nucleoprotein, and cytoplasmic protein were prepared using RIPA Lysis Buffer (Beyotime, Shanghai, China) as the described method ([Wu et al., 2021]). Proteins were separated through sodium dodecyl sulfate–polyacrylamide gel electrophoresis and transferred onto nitrocellulose or polyvinylidene difluoride membranes. The membranes were blocked with 5% skim milk and incubated with corresponding primary antibodies at 4°C overnight. After being washed with Tris-buffered saline Tween buffer, the membranes were incubated with secondary antibodies (Cell Signaling Technology, MA, USA) at 1:3000 dilution: Anti-mouse IgG, HRP-linked Antibody (#7076), Anti-rabbit IgG, HRP-linked Antibody (#7074). Protein levels were visualized using a highly sensitive ECL western blotting substrate and a gel imaging system (Tanon Science & Technology, Shanghai, China).
(§2) CM of U251 cells (U-CM), SH-SY5Y cells (S-CM), or co-culture of U251 and SH-SY5Y cells (US-CM) was prepared. U251 cells were seeded at the top of the insert membrane and suspended on 6-well plates seeded with differentiated SH-SY5Y cells to co-culture U251 cells with SH-SY5Y cells. The medium was collected every 24 hr. The CMs were subsequently used for hCMEC/D3 cell culture after filtrating with 0.2 μm filters for 144 hr. The levels of GDNF, bFGF, IGF-1, and TGF-β in CMs were measured using corresponding ELISA kits according to the manufacturers’ instructions.
(§3) Exogenous and endogenous GDNF in the medium was neutralized with anti-GDNF antibody (#AF-212-NA, R&D system, Minneapolis, MN, USA). 0.25, 0.5, and 1.0 μg/ml anti-GDNF antibody was added into the US-CM or medium containing 200 pg/ml GDNF, and then the medium was preincubated at 4°C for 1 hr. The hCMEC/D3 cells were incubated with 200 pg/ml GDNF or US-CM containing anti-GDNF antibody or not for 6 days, and then cell lysate was collected for western blot. The medium was replaced every 24 hr.
(§4) Here, hCMEC/D3 cells were plated in the plates or culture dishes at 6 × 10^4 cells/cm^2 and transfected with 10 nM of negative control or human FOXO1, ETS1, and CDH5 siRNA (Tsingke Biotechnology, Beijing, China) for 12 hr using Lipofectamine 3000 (Invitrogen, Carlsbad, CA, USA) reagent according to the manufacturer’s instructions. Cells were then incubated with a medium containing GDNF for 72 hr.

claudin-5 = assay: Western blot of claudin-5 expression in hCMEC/D3 cells; assay type: cell-based, Homo sapiens; conditions: hCMEC/D3 cells, 200 pg/ml GDNF; 3 μM SPP-86, 5 μM PP2, 3 μM LY294002, 2 μM U0126, 5 μM SP600125, 2 μM SB203580; anti-GDNF antibody 0.25, 0.5, 1.0 μg/ml
Protocol: as §1, §2, §3, §4
The plasmids encoding FOXO1 (EX-Z7404-M02) were constructed by GeneCopoeia (Rockville, MD, USA). The hCMEC/D3 cells were plated in plates or dishes at 6 × 10^4 cells/cm^2. They were subsequently transfected with 1 µg of negative control or plasmids encoding FOXO1 6 hr using Lipofectamine 3000 reagent according to the manufacturer’s instructions. Transfected cells were then incubated with the medium containing GDNF for 72 hr.

[1] = unbound fraction in brain, cited from earlier work
in vitro [2] = conditions: human
[3] = test system: hCMEC/D3 mono-culture BBB model; assay: In vitro BBB permeability study (Papp), hCMEC/D3 mono-culture BBB model; conditions: for PS: PS worked out from mean Papp
[4] = test system: hCMEC/D3 mono-culture BBB model; conditions: human
in vitro [5] = conditions: human, Papp, Mono
[6] = in situ brain perfusion in rodents; published permeability multiplied by VSA 150 cm^2/g; ref Summerfield et al., 2007; cited from earlier work
[7] = test system: triple co-culture BBB model (hCMEC/D3, U251 and SH-SY5Y cells); assay: In vitro BBB permeability study (Papp), triple co-culture BBB model; conditions: Triple co-culture BBB model; for PS: PS worked out from mean Papp
[8] = In vitro BBB permeability study (Papp), hCMEC/D3 mono-culture BBB model; conditions: human
[9] = In vitro BBB permeability study (Papp), triple co-culture BBB model; conditions: human
[10] = Papp, Triple, apical to basolateral, 30 min, 37°C, day 6, mean ± SEM, four biological replicates

For `Oc1c2ccccc2c2c3c(cccc13)N=N2` [SP600125, reference compound], the “GDNF-induced VE-cadherin expression” value (VE-cadherin) was “almost no effect” and the “GDNF-induced claudin-5 expression” value (claudin-5) was “almost no effect”.
For `Cc1ncc2n1-c1ccc(Cl)cc1C(c1ccccc1F)=NC2` [Midazolam], the “fu, brain” value ([1]; ref Kodaira et al., 2011) is given as 0.045^‡ ‡, the Papp A→B (in vitro [2]; Papp Mean, Triple co-culture BBB model, mean of 4 replicates) is given as 19.1 ×10⁻⁶ cm/s and the Papp A→B (in vitro [2]; [10]) is given as 19.1 ± 0.24 ×10⁻⁶ cm/s. For the same compound, the PS ([3]; Mono-culture BBB Model) was 5060.00 µL/min/g, the “PSPre, Mono” value [4] was 5060.00 µL/min/g and the Papp A→B (in vitro [5]; apical to basolateral, 30 min, 37°C, day 6, mean ± SEM, four biological replicates) was 25.3 ± 1 ×10⁻⁶ cm/s. For the same compound, the PSObs [6] was 2727.00^† μl/min/g and the PS [7] was 3818.00 µL/min/g.
In the case of `CC(NC(C)(C)C)C(=O)c1cccc(Cl)c1` (stereo not drawn) [Bupropion], the “fu, brain” value ([1]; ref Bhattacharya et al., 2021) is given as 0.12^§, the Papp A→B at 30 min (in vitro [2]; Papp, Triple) is given as 11.3 ± 0.44 ×10⁻⁶ cm/s and the “PSPre, Mono” value [4] is given as 1139.58 µL/min/g. It also gave a Papp A→B at 30 min (in vitro [5]) of 15.2 ± 0.2 ×10⁻⁶ cm/s.
For `CNCCC(Oc1ccc(C(F)(F)F)cc1)c1ccccc1` (stereo not drawn) [Fluoxetine], the “fu, brain” value ([1]; ref Liu et al., 2005) is listed as 0.00094, the “fu, brain” value ([1]; ref Maurer et al., 2005) is listed as 0.0023 and the “fu, brain” value ([1]; ref Summerfield et al., 2007) is listed as 0.004^†.
In the case of `COc1ccc(C(CN(C)C)C2(O)CCCCC2)cc1` (stereo not drawn) [Venlafaxine], the “fu, brain” value ([1]; ref Esaki et al., 2019) is listed as 0.205^*, the Papp A→B at 30 min ([8]; Papp (individual replicate), Mono-culture BBB Model, single replicate values (4 per drug)) is listed as 10.3 ×10⁻⁶ cm/s and the Papp A→B at 30 min ([8]; Papp, Mono, apical to basolateral, 30 min, 37°C, day 6, mean ± SEM, four biological replicates) is listed as 9.58 ± 0.28 ×10⁻⁶ cm/s. The PS ([3]; Mono-culture BBB Model) was 420.60 µL/min/g, the “PSPre, Mono” value ([3]; PSPre = Papp×60×VSA×1000/fu,brain, VSA 150 cm^2/g, from Papp, Mono) was 420.60 µL/min/g and the Papp A→B ([3]; read-out: Papp (individual replicate), Mono-culture BBB Model, single replicate values (4 per drug)) was 8.74 ×10⁻⁶ cm/s and 9.52 ×10⁻⁶ cm/s and 9.75 ×10⁻⁶ cm/s. It also gave a Papp A→B at 30 min ([9]; Papp (individual replicate), Triple co-culture BBB model, single replicate values (4 per drug)) of 7.48 ×10⁻⁶ cm/s, a Papp A→B at 30 min [9, 10] of 8.25 ± 0.36 ×10⁻⁶ cm/s and a PS [7] of 362.02 µL/min/g. The Papp A→B ([7]; read-out: Papp (individual replicate), single replicate values (4 per drug)) was 8.5 ×10⁻⁶ cm/s and 9.29 ×10⁻⁶ cm/s and 7.72 ×10⁻⁶ cm/s.
In the case of `Nc1nnc(-c2cccc(Cl)c2Cl)c(N)n1` [Lamotrigine], the “fu, brain” value ([1]; ref Summerfield et al., 2007) is listed as 0.273^†.
In the case of `C[S+]([O-])c1ccc(-c2nc(-c3ccncc3)c(-c3ccc(F)cc3)[nH]2)cc1` (stereo not drawn) [SB203580, reference compound], the “GDNF-induced VE-cadherin expression” value (VE-cadherin) is reported as “almost no effect” and the “GDNF-induced claudin-5 expression” value (claudin-5) is reported as “almost no effect”.

Source: paper PMC11524583, “Neurons enhance blood–brain barrier function via upregulating claudin-5 and VE-cadherin expression due to glial cell line-derived neurotrophic factor secretion” (eLife, 2024)
